“Also recorded” adds a separate entry of the source. Like-named read-outs stand apart in the source and are kept apart here.
Assays:
[1] = system: O2- in stationary phase cells; assay: Levels of O2- detected by DHE fluorescence in stationary phase cells; type: cell-based, Saccharomyces cerevisiae; details: for Superoxide anions: Table 2 summary, stationary phase
Procedure: The following materials and methods were used to obtain the data presented in this Example. To assess CLS 50 ml cultures were inoculated with 1% (v/v) of a fresh overnight culture in either SC or YPD. SC was supplemented using known techniques. In experiments that employed media that initially contained 10% glucose, control 2% glucose cultures also contained 8% sorbitol to maintain equivalent osmolarity. Determination of chronological life span, fraction of budded cells, flow cytometry measurements of DNA content and measurements of dihydroethidium (DHE) and dihydrorhodamine 123 (DHR) were used according to standard methods. N-acetylcysteine (NAC) and glutathione (GSH) were dissolved in growth medium, filter sterilized and added to cultures from 100 mM (NAC) or 250 mM (GSH) stocks at the start of experiments. Propidium iodide (PI) was used to assess viability of cells by mixing a 2 μl of cells with an equal volume of 1 mM PI on a microscope slide and examining the slide with a fluorescence microscope equipped with a Texas Red filter. Non-fluorescent cells were scored as intact (live) and fluorescent cells were scored as dead. The total number of cells in cultures was determined by particle counts using a Petroff Hauser counting chamber. Samples for transmission electron microscopy were prepared using standard methods. Briefly, cells cultured at 30° C. in YPD medium for 3 to 5 days were harvested by gentle centrifugation, washed in phosphate buffered saline (PBS) (pH=7.2), resuspended in 2.5% (v/v) glutaraldehyde in PBS and fixed for 40 min at room temperature. Cells were further fixed by 2% freshly prepared potassium permanganate in water for 1 hour at room temperature. Fixed cells were dehydrated with 30%, 50%, 75%, 85%, 95%, and 100% ethanol. Cells were transitioned with propylene oxide, infiltrated in Spurr resin (Electron Microscopy Sciences, PA). Resin was polymerized at 65° C. overnight in the oven. 60 nm ultrathin sections were cut with a diamond knife, stained with 2% uranyl acetate and lead citrate and examined using a Hitachi H-7000 electron microscope, equipped with a 4K×4K cooled CCD digital camera (Gatan, Inc., CA). Values presented in graphs that contain error bars represent means and standard deviations from three or more independent experiments. Other results are representative of at least three independent experiments. Statistical analyses were performed using Student's t-test. P<0.05 was considered statistically significant.

[2] = system: intracellular O2- in stationary phase budding yeast cells; assay: High throughput flow cytometry DHE screen for reduction of superoxide in stationary phase budding yeast; type: cell-based, S. cerevisiae
[3] = system: interleukin-6 release from human macrophages; assay: Interleukin-6 release from human macrophages; type: cell-based
mammalian cells = details: cited from earlier work
Saccharomyces cerevisiae = assay: Chronological lifespan (CLS) of budding yeast; type: cell-based
budding yeast = details: cited from earlier work
ribonucleotide reductase = details: low levels of hydroxyurea; cited from earlier work

N[C@@H](CCC(=O)N[C@@H](CS)C(=O)NCC(=O)O)C(=O)O [GSH, glutathione]
Superoxide anions [1]: ↓
levels of O2- (DHE fluorescence) ([1]; wild type cells, day 3 of medium depletion): reduced levels of O2-

Cc1ccc(-c2nn(C(C)(C)C)c3ncnc(N)c23)cc1 [MLS000326642, 1-tert-butyl-3-(4-methylphenyl)pyrazolo[3,4-d]pyrimidin-4-amine]
dose dependency in re-screening (reduction of superoxide, DHE) [2]: identified by dose dependency; also recorded: exhibited dose dependency
reducing superoxide anions in S. cerevisiae [2]: reducing superoxide anions
inhibition of interleukin-6 release [3]: inhibit interleukin-6 release

c1ccc2nc3cc4[nH]cnc4cc3nc2c1 [MLS000700045, 1H-imidazo[4,5-b]phenazine]
reducing superoxide anions in S. cerevisiae [2]: reducing superoxide anions
dose dependency in re-screening (reduction of superoxide, DHE) ([2]; dose response assays from 0.004 uM to 30 uM, 7 day incubation, 7% glucose): identified by dose dependency; also recorded: exhibited dose dependency
inhibition of interleukin-6 release [3]: inhibit interleukin-6 release

CC(=O)N[C@@H](CS)C(=O)O [N-acetylcysteine]
induction of O2- (mammalian cells): induction of O2-
chronological lifespan (CLS) (Saccharomyces cerevisiae; sch9Δ cells): not sch9Δ cells
chronological lifespan (CLS) (Saccharomyces cerevisiae; wild type cells, listed as NAC): shortened CLS in a dose-dependent fashion; also recorded: shorten CLS
levels of O2- (DHE fluorescence) [1]: absent
Superoxide anions [1]: ↑
levels of O2- (DHE fluorescence) ([1]; wild type cells, day 3 of medium depletion, listed as NAC): dose-dependent increases; also recorded: elevate O2- levels

O=C(Nc1ccccc1-c1cn2c(CN3CCNCC3)csc2n1)c1cnc2ccccc2n1 [SRT1720, reference compound]
reducing superoxide anions in S. cerevisiae [2]: reducing superoxide anions
inhibition of interleukin-6 release [3]: inhibit interleukin-6 release

COC1=C(OC)C(=O)C(C/C=C(\C)CC/C=C(\C)CC/C=C(\C)CC/C=C(\C)CC/C=C(\C)CC/C=C(\C)CC/C=C(\C)CC/C=C(\C)CC/C=C(\C)CCC=C(C)C)=C(C)C1=O [coenzyme Q10]
pro-oxidant effects (budding yeast): pro-oxidant effects

NC(=O)NO [hydroxyurea]
shortening of CLS (ribonucleotide reductase): 20-27%

Cc1c(C)c2c(c(C)c1O)CC[C@@](C)(CCC[C@H](C)CCC[C@H](C)CCCC(C)C)O2 [α-tocopherol]
pro-oxidant effects (budding yeast): pro-oxidant effects
